{"source": "patent US20050182252A1", "about": "“Novel 2'-C-methyl nucleoside derivatives” (priority 2004, published 2005)", "note": "Counter-ions that a name gives are not always drawn.", "data": [{"units": {"melting point": "°C"}, "values": [{"smiles": "C[C@@]1(O)[C@H](O)[C@@H](COP2(=O)OCC[C@H](c3ccc(F)c(Br)c3)O2)O[C@H]1n1ccc2c(N)ncnc21", "note": "(stereo partly shown) (as salt: salt) [Compound 16.31]", "melting point": "122 to 125"}, {"smiles": "C[C@@]1(O)[C@H](O)[C@@H](COP2(=O)OCC[C@H](c3ccc(Cl)c(Cl)c3)O2)O[C@H]1n1ccc2c(=O)[nH]c(N)nc21", "note": "(stereo partly drawn) (as salt: salt) [Compound 17.22, 2-amino-7-(cis-5′-O-[4-(3,4-dichlorophenyl)-2-oxo-1,3,2-dioxaphosphorinan-2-yl]-2′-C methyl-beta-D-ribofuranosyl)-7H-pyrrolo[2,3-d]pyrimidin-4(3H)-one]", "melting point": "192 to 195"}, {"smiles": "C[C@@]1(O)[C@H](O)[C@@H](COP2(=O)OCC[C@H](c3cncc(Br)c3)O2)O[C@H]1n1ccc2c(=O)[nH]c(N)nc21", "note": "(stereo partly drawn) (as salt: salt) [Compound 17.26, 2-amino-7-(cis-5′-O-[4-(5-bromo-pyridin-3-yl)-2-oxo-1,3,2-dioxaphosphorinan-2-yl]-2′-C methyl-beta-D-ribofuranosyl)-7H-pyrrolo[2,3-d]pyrimidin-4(3H)-one]", "melting point": "185 to 189"}, {"smiles": "C[C@@]1(O)[C@H](O)[C@@H](COP2(=O)OC[C@@H](c3ccccc3)[C@@H](c3ccccc3)O2)O[C@H]1n1ccc2c(N)ncnc21", "note": "(stereo partly drawn) (as salt: trifluoroacetic acid salt) [Compound 16.13, 4-amino-7-(cis-5′-O-14,5-cis-diphenyl-2-oxo-1,3,2-dioxaphosphorinan-2-yl]-2′-C-methyl-beta-D-ribofuranosyl)-7H-pyrrolo[2,3-d]pyrimidine trifluoroacetic acid salt]", "melting point": "174 to 177"}, {"smiles": "C[C@@]1(O)[C@H](O)[C@@H](COP2(=O)O[C@H](c3ccccc3)C[C@H](c3ccccc3)O2)O[C@H]1n1ccc2c(N)ncnc21", "note": "(stereo partly drawn) (as salt: trifluoroacetic acid salt) [Compound 16.16, 4-amino-7-(cis-5′-O-[4,6-cis-diphenyl-2-oxo-1,3,2-dioxaphosphorinan-2-yl]-2′-C-methyl-beta-D-ribofuranosyl)-7H-pyrrolo[2,3-d]pyrimidine trifluoroacetic acid salt]", "melting point": "140 to 143"}, {"smiles": "C[C@@]1(O)[C@H](O)[C@@H](CO[P@@]2(=O)O[C@H](c3ccccc3)C[C@H](c3ccccc3)O2)O[C@H]1n1ccc2c(N)ncnc21", "note": "(as salt: trifluoroacetic acid salt) [Compound 16.18, 4-amino-7-(trans-5′-O-[4,6-cis-diphenyl-2-oxo-1,3,2-dioxaphosphorinan-2-yl]-2′-C-methyl-beta-D-ribofuranosyl)-7H-pyrrolo[2,3-d]pyrimidine trifluoroacetic acid salt]", "melting point": "> 220"}, {"smiles": "CO[C@@H]1COP(=O)(OC[C@H]2O[C@@H](n3ccc4c(N)ncnc43)[C@](C)(O)[C@@H]2O)O[C@@H]1c1cccc(Cl)c1", "note": "(stereo partly shown) (as salt: trifluoroacetic acid salt) [Compound 16.23]", "melting point": "116 to 120"}, {"smiles": "CO[C@H]1COP(=O)(OC[C@H]2O[C@@H](n3ccc4c(N)ncnc43)[C@](C)(O)[C@@H]2O)O[C@@H]1c1cccc(Cl)c1", "note": "(stereo partly shown) (as salt: trifluoroacetic acid salt) [Compound 16.24]", "melting point": "140 to 143"}, {"smiles": "C[C@@]1(O)[C@H](O)[C@@H](COP2(=O)OCC[C@H](c3ccccn3)O2)O[C@H]1n1ccc2c(N)ncnc21", "note": "(stereo partly drawn) (as salt: trifluoroacetic acid salt) [Compound 16.33, 4-amino-7-(cis-5′-O-14-(pyridin-2-yl-2-oxo-1,3,2-dioxaphosphorinan-2-yl]-2′-C-methyl-beta-D-ribofuranosyl)-7H-pyrrolo[2,3-d]pyrimidine trifluoroacetic acid salt]", "melting point": "88 to 90"}, {"smiles": "C[C@@]1(O)[C@H](O)[C@@H](COP2(=O)OCC[C@H](c3ccc(Cl)cc3)O2)O[C@H]1n1ccc2c(N)ncnc21", "note": "(stereo partly drawn) (as salt: trifluoroacetic acid salt) [Compound 16.35, 4-amino-7-(cis-5′-O-[4-(4-chlorophenyl-2-oxo-1,3,2-dioxaphosphorinan-2-yl]-2′-C-methyl-beta-D-ribofuranosyl)-7H-pyrrolo[2,3-d]pyrimidinetrifluoroacetic acid salt]", "melting point": "182 to 184"}, {"smiles": "C[C@@]1(O)[C@H](O)[C@@H](COP2(=O)OCC[C@H](c3cccc(F)c3F)O2)O[C@H]1n1ccc2c(N)ncnc21", "note": "(stereo partly drawn) (as salt: trifluoroacetic acid salt) [Compound 16.36, 4-amino-7-(cis-5′-O-[4-(2,3-difluorophenyl)-2-oxo-1,3,2-dioxaphosphorinan-2-yl]-2′-C-methyl-beta-D-ribofuranosyl)-7H-pyrrolo[2,3-d]pyrimidine trifluoroacetic acid salt]", "melting point": "177 to 180"}, {"smiles": "COc1ccc(F)c([C@H]2CCOP(=O)(OC[C@H]3O[C@@H](n4ccc5c(N)ncnc54)[C@](C)(O)[C@@H]3O)O2)c1", "note": "(stereo partly drawn) (as salt: trifluoroacetic acid salt) [Compound 16.37, 4-amino-7-(cis-5′-O-[4-(2-fluoro-5-methoxyphenyl)-2-oxo-1,3,2-dioxaphosphorinan-2-yl]-2′-C-methyl-beta-D-ribofuranosyl)-7H-pyrrolo[2,3-d]pyrimidine trifluoroacetic acid salt]", "melting point": "80 to 85"}, {"smiles": "C[C@@]1(O)[C@H](O)[C@@H](COP2(=O)OCC[C@H](c3ccc(F)cc3Cl)O2)O[C@H]1n1ccc2c(N)ncnc21", "note": "(stereo partly drawn) (as salt: trifluoroacetic acid salt) [Compound 16.38, 4-amino-7-(cis-5′-O-[4-(2-chloro-4-fluorophenyl)-2-oxo-1,3,2-dioxaphosphorinan-2-yl]-2′-C-methyl-beta-D-ribofuranosyl)-7H-pyrrolo[2,3-d]pyrimidine trifluoroacetic acid salt]", "melting point": "138 to 141"}, {"smiles": "C[C@@]1(O)[C@H](O)[C@@H](COP2(=O)OCC[C@@H](c3ccccn3)O2)O[C@H]1n1ccc2c(=O)[nH]c(N)nc21", "note": "(stereo partly drawn) (as salt: trifluoroacetic acid salt) [Compound 17.8, 2-amino-7-(cis-5′-O-[4-(pyridin-2-yl)-2-oxo-1,3,2-dioxaphosphorinan-2-yl]-2′-C methyl-beta-D-ribofuranosyl)-7H-pyrrolo[2,3-d]pyrimidin-4(3H)-one trifluoroacetic acid salt]", "melting point": "180 to 190"}, {"smiles": "C[C@@]1(O)[C@H](O)[C@@H](COP2(=O)OCC[C@@H](c3ccccc3C(F)(F)F)O2)O[C@H]1n1ccc2c(=O)[nH]c(N)nc21", "note": "(stereo partly drawn) (as salt: trifluoroacetic acid salt) [Compound 17.9, 2-amino-7-(cis-5-O-[4-(2-trifluoromethylphenyl)-2-oxo-1,3,2-dioxaphosphorinan-2-yl]-2′-C methyl-beta-D-ribofuranosyl)-7H-pyrrolo[2,3-d]pyrimidin-4(3H)-one trifluoroacetic acid salt]", "melting point": "185 to 188"}, {"smiles": "C[C@@]1(O)[C@H](O)[C@@H](CO[P@]2(=O)OCC[C@H](c3cccc(Cl)c3)O2)O[C@H]1n1ccc2c(=O)[nH]c(N)nc21", "note": "(as salt: trifluoroacetic acid salt) [Compound 17.10, 2-amino-7-(cis-5′-O-[4-(R)-(3-chlorophenyl)-2-oxo-1,3,2-dioxaphosphorinan-2-yl]-2′-C methyl-beta-D-ribofuranosyl)-7H-pyrrolo[2,3-d]pyrimidin-4(3H)-one trifluoroacetic acid salt]", "melting point": "170 to 180"}, {"smiles": "C[C@@]1(O)[C@H](O)[C@@H](COP2(=O)OCC[C@H](c3cc(F)cc(F)c3)O2)O[C@H]1n1ccc2c(=O)[nH]c(N)nc21", "note": "(stereo partly drawn) (as salt: trifluoroacetic acid salt) [Compound 17.11, 2-amino-7-(cis-5-O-[4-(3,5-difluorophenyl)-2-oxo-1,3,2-dioxaphosphorinan-2-yl]-2-C methyl-beta-D-ribofuranosyl)-7H-pyrrolo[2,3-d]pyrimidin-4(3H)-one trifluoroacetic acid salt]", "melting point": "182 to 185"}, {"smiles": "C[C@@]1(O)[C@H](O)[C@@H](COP2(=O)OC[C@H](c3ccccc3)[C@H](c3ccccc3)O2)O[C@H]1n1ccc2c(=O)[nH]c(N)nc21", "note": "(stereo partly drawn) (as salt: trifluoroacetic acid salt) [Compound 17.17, 2-amino-7-(cis-5′-[4,5-cis-diphenyl-2-oxo-1,3,2-dioxaphosphorinan-2-yl]-2-C methyl-beta-D-ribofuranosyl)-7H-pyrrolo[2,3-d]pyrimidin-4(3H)-one trifluoroacetic acid salt]", "melting point": "187 to 190"}, {"smiles": "CC1(C)C[C@H](c2ccccc2)OP(=O)(OC[C@H]2O[C@@H](n3ccc4c(=O)[nH]c(N)nc43)[C@](C)(O)[C@@H]2O)O1", "note": "(stereo partly drawn) (as salt: trifluoroacetic acid salt) [Compound 17.18, 2-amino-7-(cis-5′-O-[6,6-dimethyl-4-phenyl-2-oxo-1,3,2-dioxaphosphorinan-2-yl]-2′C methyl-beta-D-ribofuranosyl)-7H-pyrrolo[2,3-d]pyrimidin-4(3H)-one trifluoroacetic acid salt]", "melting point": "192 to 194"}, {"smiles": "C[C@@]1(O)[C@H](O)[C@@H](COP2(=O)OCC[C@H](c3cccc(F)c3F)O2)O[C@H]1n1ccc2c(=O)[nH]c(N)nc21", "note": "(stereo partly drawn) (as salt: trifluoroacetic acid salt) [Compound 17.20, 2-amino-7-(cis-5′-O[4-(2,3-difluorophenyl)-2-oxo-1,3,2-dioxaphosphorinan-2-yl]-2′-C methyl-beta-D-ribofuranosyl)-7H-pyrrolo[2,3-d]pyrimidin-4(3H)-one trifluoroacetic acid salt]", "melting point": "215 to 220"}, {"smiles": "C[C@@]1(O)[C@H](O)[C@@H](COP2(=O)OCC[C@@H](c3cccc(Cl)c3)O2)O[C@H]1n1cnc2c(N)ncnc21", "note": "(stereo partly drawn) (as salt: trifluoroacetic acid salt) [Compound 21.1, cis-5′-O-[4-(S)-(3-chlorophenyl)-2-oxo-1,3,2-dioxaphosphorinan-2-yl]-2′-C-beta-methyl-adenosine trifluoroacetic acid salt]", "melting point": "125 to 128"}, {"smiles": "C[C@@]1(O)[C@H](O)[C@@H](COP2(=O)OCC[C@@H](c3ccccn3)O2)O[C@H]1n1cnc2c(N)ncnc21", "note": "(stereo partly drawn) (as salt: trifluoroacetic acid salt) [Compound 21.7, cis-5′-O-[4-(pyridin-2-yl)-2-oxo-1,3,2-dioxaphosphorinan-2-yl]-2′-C-beta-methyl-adenosine trifluoroacetic acid salt]", "melting point": "118 to 120"}]}]}
